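How tested: cells in 96-well plates exposed to compound for 48 hours at five concentrations. GI50 is the concentration that inhibits growth by half. Definition used: TGI = concentration required for complete inhibition of growth.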
Legend:
Experiment in all cases: NCI-60 cell line screen, 48 h
HOP-62 NSCLC = system: HOP-62 NSCLC
LOX IMVI melanoma = system: LOX IMVI melanoma
SN12C renal = system: SN12C renal
MDA-MB-231 breast = system: MDA-MB-231 breast
CCRF-CEM leukemia = system: CCRF-CEM leukemia
SK-MEL-28 melanoma = system: SK-MEL-28 melanoma
SNB-19 CNS = system: SNB-19 CNS
NCI-H460 lung = system: NCI-H460 lung
HCT-15 colon = system: HCT-15 colon
PC-3 prostate = system: PC-3 prostate

| SMILES | GI50 (HOP-62 NSCLC) [µM] | TGI (HOP-62 NSCLC) [µM] | GI50 (LOX IMVI melanoma) [µM] | TGI (LOX IMVI melanoma) [µM] | GI50 (SN12C renal) [µM] | TGI (SN12C renal) [µM] | GI50 (MDA-MB-231 breast) [µM] | TGI (MDA-MB-231 breast) [µM] | GI50 (CCRF-CEM leukemia) [µM] | TGI (CCRF-CEM leukemia) [µM] | GI50 (SK-MEL-28 melanoma) [µM] | TGI (SK-MEL-28 melanoma) [µM] | GI50 (SNB-19 CNS) [µM] | TGI (SNB-19 CNS) [µM] | GI50 (NCI-H460 lung) [µM] | TGI (NCI-H460 lung) [µM] | GI50 (HCT-15 colon) [µM] | TGI (HCT-15 colon) [µM] | GI50 (PC-3 prostate) [µM] | TGI (PC-3 prostate) [µM] |
| --- | --- | --- | --- | --- | --- | --- | --- | --- | --- | --- | --- | --- | --- | --- | --- | --- | --- | --- | --- | --- |
| CCOc1ccc2nc(SCc3nc4n(n3)S(=O)(=O)c3ccccc3N4C)sc2c1 | 50.8 | > 100 | > 100 | > 100 | > 100 | > 100 | 73.1 | > 100 | 64.2 | > 100 | > 100 | > 100 | > 100 | > 100 | > 100 | > 100 | > 100 | > 100 | – | – |
| COc1cc(NC(N)=NCCC(C)(C)Oc2ccc(C(F)(F)F)cc2)ncc1C#N | 1.75 | 3.2 | 1.6 | 3.01 | 1.85 | 3.35 | 1.75 | 3.21 | – | – | 1.83 | 3.23 | 1.84 | 3.3 | 1.72 | 3.39 | 1.65 | 3.07 | 1.42 | 2.82 |
| CC(C)=CCc1c(OC(=O)c2c(C)cc(O)cc2O)cc(CO)c(CO)c1O | – | – | – | 40.9 | – | 34.9 | – | 48.3 | – | – | – | 46.7 | – | 21.2 | – | 39.2 | – | 34.6 | – | 36.8 |
| COc1ccc(S(=O)(=O)Nc2ccccc2C(=O)O)cc1 | – | – | – | > 100 | – | > 100 | – | – | – | > 100 | – | > 100 | – | > 100 | – | > 100 | – | > 100 | – | – |
| O=C1c2ccccc2-c2c1c1c(=O)[nH]c3ccccc3c1n2Cc1ccccc1 | 25.6 | 49.1 | 31.3 | > 100 | 35.9 | > 100 | 20.5 | 48 | > 100 | > 100 | 84.7 | > 100 | 25.1 | 65.5 | 61.7 | > 100 | 59.1 | > 100 | – | – |
| CCOC(=O)C1N(S(=O)(=O)c2ccc(C)cc2)CCC12c1ccccc1N(C(C)=O)C2c1ccc(OC)c(OC)c1 (configuration not stated) | – | > 100 | – | > 100 | – | > 100 | – | – | – | > 100 | – | > 100 | – | > 100 | – | > 100 | – | – | – | – |
| CCCCCC[N+](C)(C)Cc1ccc(C[N+](C)(C)CCCCCC)cc1 | – | 8.23 | – | – | – | 12.7 | – | – | – | – | – | 23.6 | – | 67.4 | – | 6.03 | – | 23.7 | – | – |
| CC(C)=CC(=O)C/C(=N\NC(N)=S)C(=O)Nc1ccc(Cl)cc1 | – | – | – | > 100 | – | > 100 | – | – | – | > 100 | – | > 100 | – | > 100 | – | > 100 | – | > 100 | – | – |
| COC(=O)/C=C1/CCC(C(=O)OC)N1 (configuration not stated) | – | > 100 | – | > 100 | – | > 100 | – | – | – | > 100 | – | > 100 | – | > 100 | – | > 100 | – | > 100 | – | – |
